The values that follow come from patent publication US20170050934A1 (priority 2014, published 2017).

SMILES strings stand for the structures. Some results are limits rather than exact numbers.

For orientation: inhibition means the percentage by which the read-out fell short of the control.

Test [1] relates to rice blast fungus (Magnaporthe grisea). As to the kind of experiment: microbe, parasite or virus in culture. The test is classed as cell-based. The settings on record: Pyricularia oryzae, read-out: antimicrobial activity, inhibition of Magnaporthe grisea.
The subject of test [2] is Botrytis cinerea AARF-033. The experiment in a line: Antimicrobial activity test against rice Botrytis cinerea (conidia, 96 well microplate). The test is classed as cell-based. To be noted: AARF033, 96 h, conidia 1×10^4 conidia/ml in potato-glucose broth, 25° C. for 4 days. An excerpt: Test specimen (compound (A2-1) and compound (A5-1)) and reference agents i.e. iprodione and captan, were, respectively, dissolved in dimethyl sulfoxide (DMSO) and adjusted to 10,000 ppm. To a flat bottom 96 well microplate, 2 μ/ml of each test solution was dispensed, and then, 198 μ/ml of conidia of rice Botrytis cinerea (Botrytis cinerea AARF-033) cultured on a potato-glucose agar medium, and suspended in a potato-glucose broth and adjusted to 1×10^4 conidia/ml, were dispensed, followed by stirring by a micro mixer. At that time, the concentration of each test specimen and reference agent, was 100 ppm. Thereafter, culturing under standing-still condition was conducted at 25° C. for 4 days, whereby the antimicrobial activities were evaluated.

`CCCCNC(=O)n1c(NC(=O)OC)nc2ccccc21` [Benomyl, benomyl]: in test [1], the inhibition at 100 ppm is at least 95%. For the compound `O=C1C2CC=CCC2C(=O)N1SC(Cl)(Cl)Cl` (centres unmarked) [Captan, captan], the inhibition at 100 ppm in test [2] was at least 95%. For the compound `CCOC(=O)c1cnc(-c2ccccc2)nc1C(F)(OC(F)(F)C(F)(F)C(F)(F)F)C(F)(F)F` (centres unmarked) [Compound A2-1], the inhibition at 100 ppm in test [1] and in test [2] was at least 95% each time. In the case of `Nc1cnc(-c2ccccc2)nc1C(F)(F)OC(F)(F)C(F)(F)OC(F)(F)C(F)(F)F` [Compound A5-1], the inhibition at 100 ppm in test [1] and in test [2] was at least 95% each time. For the compound `CO/N=C(/C1=NOCCO1)c1ccccc1Oc1ncnc(Oc2ccccc2Cl)c1F` [Fluoxastrobin, fluoxastrobin], in test [1], the inhibition at 100 ppm was at least 95%.

In turn, `CC(C)NC(=O)N1CC(=O)N(c2cc(Cl)cc(Cl)c2)C1=O` [Iprodione, iprodione] showed an inhibition at 100 ppm in test [2] of at least 95%.
